The numbers were not newly measured in patent US20200078478A1, “Structural molecule of peptide derivative for PSMA-targeting radiotherapy diagnosis and treatment” (priority 2018, published 2020), which cites them from elsewhere.

For the series the following is noted: Lu-177 labeled, clinical treatment.

`O=C(O)CC[C@H](NC(=O)N[C@@H](CCCCNC(=O)[C@H](Cc1ccc2ccccc2c1)NC(=O)[C@H]1CC[C@H](CNC(=O)CN2CCN(CC(=O)O)CCN(CC(=O)O)CCN(CC(=O)O)CC2)CC1)C(=O)O)C(=O)O` [PSMA-617]: the half-life is 10.8 h.

By half-life is commonly meant the time needed for the level to fall by half in the phase considered.
